{
  "source": "patent US10428111B2",
  "about": "“Cancer targeting by anti-EGFR peptides and applications thereof” (priority 2015, dated 2019)",
  "key": {"[1]": {"tested_on": "TUBO breast carcinoma tumor", "assay": "Chemotherapy study in tumor-bearing mice", "details": "for CR (complete regression) / TFS (tumor free survivor): number of animals of n = 4-5; for TGD (Tumor growth delay): versus dextrose 5% control", "description": "Initially, on day 0, female BALB/c mice aged 4-6 weeks were given subcutaneous injections of TUBO tumor cells (5×10^5 cells per mouse) in the right flank. On day 11, post-tumoring mice with palpable tumor received 0.2 mL via a single tail vein injection of either dextrose 5% solution as negative control or doxorubicin encapsulated in liposomes (15 mg/kg). Mice were weighed and tumor sizes were monitored during the experimental period. The tumor volume was estimated by measuring three orthogonal diameters (a, b, and c) with calipers; the volume was calculated as (a×b×c)×0.5 mm^3. Tumors that were just palpable were defined as 1 mm^3. To survival study, the mice were monitored for up to 120 days post-tumoring or until one of the following conditions for euthanasia was met: (1) their body weight dropped below 20% of their initial mass; (2) their tumor was greater than 2.0 cm across in any dimension; (3) they became lethargic or sick and unable to feed; or (4) they were found dead. The time to reach the endpoint (TTE) for each mouse was calculated from the equation of the line obtained by exponential regression of the tumor growth curve. Subsequently, the percent of tumor growth delay (% TGD) were calculated based on the difference between the mean TTE of treatment group (T) and theme an TTE of the control group (C) (% TGD=[(T−C)/C]×100). […] In a partial regression response, the tumor volume is less than or equal to 50% of its day 1 volume for three consecutive measurements during the course of the study, and greater than or equal to 13.5 mm^3 for one or more of these three measurements. In a complete regression response, the tumor volume is less than 13.5 mm^3 for three consecutive measurements during the course of the study. An animal with a complete regression response at the end of the study was additionally classified as a tumor-free survivor.\nThe investigation to get the above-mentioned results took place in female BALB/c mice earing TUBO breast carcinoma tumor after administration of a single dose of 15 mg/kg liposome loaded by doxorubicin (DOX) or dextrose 5% on day 11 after tumor inoculation."}, "[2]": {"tested_on": "SKBR3 (HER2-overexpressing cells)", "assay": "MTT cytotoxicity study", "format": "cell-based, human", "details": "then 48 hours, mean ± SD, n = 3", "procedure": "(§1) The anti-proliferative effects of liposomal preparations containing DOX were assessed using MTT assay. SK-BR-3, TUBO, and MDA-MB-231 cells were seeded at 7000, 10,000, 2500 cells/well in 96 well plates. After an overnight incubation, the medium was replaced with FCS free medium containing 1:2 serial dilutions of liposomal DOX or free DOX. After 3 hours and 6 hours' incubation times at 37° C., cells were washed with pre-warmed complete culture media and re-incubated further for 48 hours at 37° C. in their complete culture medium. Then, the medium was replaced with 100 μL of freshly prepared MTT (10% v/v, 5 mg/mL) and FCS free culture medium. Finally, after 4 hours of incubation at 37° C., the absorbance at 545 nm was recorded. Relative cell death (R) was calculated as follows: R=1−[(Atest−Ablank)/(Acontrol−Ablank)] Equation (1)\n(§2) In the above Equation (1), Atest is the absorbance values of the cells treated with the test solutions and Acontrol is the absorbance values of the culture medium (negative control). Ablank is the absorbance of MTT solution added in cell free wells. The IC50 was then calculated using CalcuSyn version 2 software (BIOSOFT, UK)."}, "[3]": {"assay": "Bio-distribution study (DOX in plasma, tumor and tissues)", "format": "in vivo, BALB/c mice", "details": "15 mg/kg as DOX; after 3 hours", "procedure": "Two weeks after tumor inoculation, when the tumors were approximately 5 mm wide, mice (3 per group) were injected via the tail vain with either 15 mg/kg of doxorubicin as Caelyx® or targeted liposomes. Control mice received 200 μL of dextrose 5%. Blood samples were collected via retro orbital bleeding (approx. 0.5 mL) 3, 6, and 12 hours after the dosing. After 24 hours, the group was sacrificed for tissue collection. Blood samples were collected by heart puncture, and the whole tumor, kidneys, spleen, heart, lungs as well as a portion of liver and muscle were dissected, weighted and placed in a 2 mL Polypropylene Microvials containing 1 mL of acidified isopropanol and zirconia bead sand homogenized by Mini-Beadbeater-1. The blood was allowed to coagulate at 4° C. and then centrifuged for 10 min at 14,000 rpm. Then, serum was collected and an adequate volume was diluted in 1 mL acidified isopropanol. The homogenized tissue samples and the sera were stored overnight at 4° C. to extract the drug. The samples were then centrifuged and the supernatant was assayed for DOX concentration spectrofluorimetrically (Ex:470 nm, Em:590 nm). The calibration curve was prepared using serial dilutions of Doxil the tissue and sera extracts of the control mice. […]"}, "[4]": {"tested_on": "MDA-MB-231 (HER2-Low expressing cells)", "assay": "MTT cytotoxicity study", "format": "cell-based", "details": "then 48 hours, mean ± SD, n = 3", "procedure": "as §1, §2"}, "[5]": {"tested_on": "TUBO (HER2-overexpressing cells)", "assay": "MTT cytotoxicity study", "format": "cell-based, mice", "details": "then 48 hours, mean ± SD, n = 3", "procedure": "as §1, §2"}, "[6]": {"details": "Table 3B (719W), liposomes 15 mg/kg, DOX 10 mg/kg"}},
  "note": "Read-outs that look alike come from different tables or passages of the source.",
  "data": [
    {"smiles": "COc1cccc2c1C(=O)c1c(O)c3c(c(O)c1C2=O)C[C@@](O)(C(=O)CO)C[C@@H]3O[C@H]1C[C@H](N)[C@H](O)[C@H](C)O1", "note": "[DOX, doxorubicin]", "values": [
      {"measurement": "CR (complete regression)", "setting": "[1]; Table 3A (420W)", "value": 0},
      {"measurement": "TFS (tumor free survivor)", "setting": "[1]; Table 3A (420W)", "value": 0},
      {"measurement": "TTE (time to reach the end point)", "setting": "[1]; Table 3A (420W), single i.v. dose on day 11, monitored up to 120 days", "value": 70.4, "unit": "days"},
      {"measurement": "MST (Median survival Time)", "setting": "[1]; Table 3A (420W), single i.v. dose on day 11 after tumor inoculation, monitored up to 120 days", "value": 69.2, "unit": "days"},
      {"measurement": "TGD (Tumor growth delay)", "setting": "[1]; Table 3A (420W)", "value": 18, "unit": "%"},
      {"measurement": "TTE (time to reach the end point)", "setting": "[1]; [6]", "value": 70.4, "unit": "days"},
      {"measurement": "CR (complete regression)", "setting": "[1]; [6]", "value": 0},
      {"measurement": "TFS (tumor free survivor)", "setting": "[1]; [6]", "value": 0},
      {"measurement": "MST (Median survival Time)", "setting": "[1]; Table 3B (719W), single i.v. dose, liposomes 15 mg/kg, DOX 10 mg/kg, up to 120 days", "value": 69.2, "unit": "days"},
      {"measurement": "TGD (Tumor growth delay)", "setting": "[1]; [6]", "value": 18, "unit": "%"},
      {"measurement": "IC50", "setting": "[2]; Table 2A (420W), 3 hours incubation, read-out: IC50 SKBR3 3 hours", "value": "620 ± 20", "unit": "nM"},
      {"measurement": "IC50", "setting": "[2]; Table 2A (420W), 6 hours incubation, read-out: IC50 SKBR3 6 hours", "value": "390 ± 50", "unit": "nM"},
      {"measurement": "IC50", "setting": "[2]; Table 2B (719W), 3 h incubation, read-out: IC50 SKBR3 3 h", "value": "560 ± 20", "unit": "nM"},
      {"measurement": "IC50", "setting": "[2]; Table 2B (719W), 6 h incubation, read-out: IC50 SKBR3 6 h", "value": "240 ± 10", "unit": "nM"},
      {"measurement": "plasma concentration of DOX after intravenous injection", "setting": "[3]", "value": "below the detection limit"},
      {"measurement": "IC50", "setting": "[4]; Table 2A (420W), 3 hours incubation, read-out: IC50 MDA-MB-231 3 hours", "value": "600 ± 50", "unit": "nM"},
      {"measurement": "IC50", "setting": "[4]; Table 2A (420W), 6 hours incubation, read-out: IC50 MDA-MB-231 6 hours", "value": "260 ± 10", "unit": "nM"},
      {"measurement": "IC50", "setting": "[4]; Table 2B (719W), 3 h incubation, read-out: IC50 MDA-MB-231 3 h", "value": "600 ± 90", "unit": "nM"},
      {"measurement": "IC50", "setting": "[4]; Table 2B (719W), 6 h incubation, read-out: IC50 MDA-MB-231 6 h", "value": "260 ± 40", "unit": "nM"},
      {"measurement": "IC50", "setting": "[5]; Table 2A (420W), 3 hours incubation, read-out: IC50 TUBO 3 hours", "value": "150 ± 70", "unit": "nM"},
      {"measurement": "IC50", "setting": "[5]; Table 2A (420W), 6 hours incubation, read-out: IC50 TUBO 6 hours", "value": "90 ± 10", "unit": "nM"},
      {"measurement": "IC50", "setting": "[5]; Table 2B (719W), 3 h incubation, read-out: IC50 TUBO 3 h", "value": "150 ± 10", "unit": "nM"},
      {"measurement": "IC50", "setting": "[5]; Table 2B (719W), 6 h incubation, read-out: IC50 TUBO 6 h", "value": "90 ± 30", "unit": "nM"}
    ]}
  ]
}
